Results as given in paper PMC12203428, “Discovery of Clonixeril as a Sub-Femtomolar Modulator of the Human STING Receptor” (ACS Central Science, 2025).
“Also recorded” adds a separate entry of the source. Like-named read-outs stand apart in the source and are kept apart here.

Columns and labels:
[1] = system: hSTING phosphorylation (p-hSTING) in HEK293 cells; assay: HEK293 pSTING Western blot with 2′,3′-cGAMP; type: cell-based, human
Protocol: Since phosphorylation of Ser366 of hSTING is a necessary step to initiate recruitment, subsequent docking, and phosphorylation of IRF3, we investigated whether CXL would affect hSTING phosphorylation levels in cellulo. Thus, HEK293 cells were treated with varying concentrations of CXL (1fM-1nM) for one hour prior to 2 μM 2′,3′-cGAMP treatment for 90 min (Figure A) or 2 h (Figure C). An optimized dose of 2 μM 2′,3′-cGAMP was based on a dose–response study done for this experiment. A control group was treated with vehicle for 1 h followed by 2 μM 2′,3′-cGAMP for 1 or 2 h (Figure C) Total protein lysates were collected and analyzed by Western blotting using antibodies against p-hSTING, hSTING, and β-actin.
HEK293 cells were seeded at 700,000 cells per 60 mm plate confluency and treated 36 h later. […] Vehicle control group was treated with Escort IV reagent and DMSO for 1 h prior to 2 μM 2′,3′-cGAMP (InvivoGen) for 1 h and 30 min using Escort IV transfection reagent. DMSO concentration was kept constant across all treatment groups. Total cell lysates were collected and analyzed by Western blotting using antibodies against p-STING, STING, and β-actin. […] Data points were analyzed with a one-way ANOVA test using PRISM9 statistical analysis software (GraphPad). A level of p < 0.05 was considered statistically significant.

His-hSTING CTD = target: T1, His-hSTING CTD (Homo sapiens, UniProt Q86WV6, H232R); assay: Surface plasmon resonance; type: binding; details: without 2′,3′-cGAMP competition; read-out: KD (SPR)
T1 construct: purchased Invivogen (USA) or Cayman Chemicals (USA)
T1 sequence (Q86WV6 153-340 H232R): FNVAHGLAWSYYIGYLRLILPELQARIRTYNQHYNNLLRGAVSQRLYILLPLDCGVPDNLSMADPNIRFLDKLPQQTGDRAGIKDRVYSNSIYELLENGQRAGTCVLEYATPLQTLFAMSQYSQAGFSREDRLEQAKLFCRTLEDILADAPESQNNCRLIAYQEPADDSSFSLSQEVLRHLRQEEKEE
Protocol: SPR was employed for binding measurements using the His-tagged hSTING^WT CDN domain. A GE Healthcare Biacore T200 was equipped with a Ni-NTA chip. […] The sensorgrams were analyzed using Biacore T200 Software 3.0 and steady state was measured at 4 s before injection stop, exported into Graphpad, and fit versus concentration using a one site specific binding model to calculate the apparent equilibrium dissociation constant (K D). Where appropriate, kinetics were measured using a 1:1 Langmuir binding model with R max set to local to obtain the association rate (K on), dissociation (K off)

[2] = system: hSTING WT pathway (THP1 Dual KI-hSTING-R232 cells, IRF3 luciferase reporter); assay: THP-1 IRF3 luciferase reporter assay, clonixeril as agonist
Protocol: 2 Luciferase assay utilizing monocytic leukemia (THP-1) cells. Cells (Invivogen THP1 Dual KI-hSTING-R232; wild type) were analyzed for activation of the hSTING WT pathway via an IRF3 luciferase reporter. Luminescence is reported in relative luminescence units (RLU). Error bars are SEM A. Dose–response of THP-1 cells treated with various concentrations of clonixeril (CXL); N = 6.
A 10 mM stock solution of CXL in 100% DMSO was diluted with ultrapure Milli Q water to make 3, 5, 10, 15, 20, 30, 40, 50 μM samples. The vehicle control contained blank cell medium treated with 0.1% DMSO. 20 μL sample/well of CXL or dilute DMSO (vehicle control) was added to a white, 300 μL, sterile 96 well plate. […] All samples contained a final DMSO concentration of 0.1%. […] The expression of Lucia luciferase was quantified by measuring the luminescence and evaluated in triplicate. Data are average luminescence changes shown as relative luminescence after subtraction of the background luminescence of vehicle-treated cells. A Glowmax luminometer with an injector was used for the measurement of luminescence in the luciferase assay. After the 10h incubation period, 20 μL/well of cell culture supernatant was transferred to a fresh well plate. A single injector added 50 μL of detection reagent per well, and immediately measured luminescence using a 4s incubation time integrated over 1 s.

[3] = system: THP1 STING knockout cells; assay: STING knockout THP-1 luciferase assay; type: cell-based, human; details: WT-THP1 vs THP1 STING knockout cells
Text: docking algorithm to properly calculate estimated free energies of binding for the LD-protein […]
Differential Scanning Fluorimetry – Thermal Shift Experiment […]
to the endogenous ligand, 2’,3’-cGAMP, 2) unbound and 3) bound to ligands chosen by the virtual screening process for their potential to stabilize the active form of the STING molecule by binding to it. A TSA measures a protein's melting temperature (Tm), at which the protein is 50% denatured. The assay quantifies protein denaturation by measuring the increase in fluorescence of a dye that binds to hydrophobic residues exposed by unfolding of the protein.
To determine clonixeril’s hydrolytic stability and evaluate its potential as an oral drug, an aqueous solution was concentrated for analysis at 20 µM. The sample was analyzed by HPLC using an […]
The UV spectra of these peaks were compared by diode array and found to be identical with maximum absorbance at 280nm and 343nm. […]
the minor first peak matched the molecular weight of clonixin (M+H)+ and the second major peak matched the molecular weight of clonixeril (M+H)+. […] Hydrolysis of clonixeril to clonixin was measured by HPLC over seven days using a 20 µM aqueous solution. […]
Figure S4. […] (D) Quantification of luciferase assay performed using WT-THP1 and THP1 STING knockout cells in the presence and absence of clonixeril and/or 2’,3’-cGAMP. […]

[4] = system: IFN-β expression in HEK293 cells; assay: HEK293 real-time qPCR for IFN-β
Protocol: IFN-β expression levels were measured using real-time qPCR.

[5] = system: hSTING WT pathway (THP1 Dual KI-hSTING-R232 cells, IRF3 luciferase reporter)
Protocol: 2 Luciferase assay utilizing monocytic leukemia (THP-1) cells. Cells (Invivogen THP1 Dual KI-hSTING-R232; wild type) were analyzed for activation of the hSTING WT pathway via an IRF3 luciferase reporter. Luminescence is reported in relative luminescence units (RLU).
A study was performed to determine that five hundred thousand cells/mL was the optimal cell density. An optimization study was performed to determine the maximum DMSO percentage so as not to impact the viability of the cells. […] The chosen concentration was 4 μM. The cells were tested with lipofectamine and compared to wells prepared without lipofectamine.

SMILES: Cc1c(Cl)cccc1Nc1ncccc1C(=O)OCC(O)CO (centres unmarked) [CXL, clonixeril]
- Effect on hSTING phosphorylation, CXL prior to 2′,3′-cGAMP ([1]; CXL 1 fM-1 nM 1 h, then 2 μM 2′,3′-cGAMP): downregulated hSTING phosphorylation close to near basal cellular levels
- Effect on hSTING phosphorylation, 2′,3′-cGAMP prior to CXL ([1]; same concentration range): inhibitory activity was not observed
- Kd (His-hSTING CTD): 0.43 ± 0.14 µM
- EC50 ([2]; Homo sapiens, THP1-Dual KI-hSTING-R232, read-out: EC50 (agonist activity), CXL alone, THP-1 cells, Figure 2A): ~19 µM
- Agonist activity in luciferase reporter assay ([2]; compound alone): weak agonist activity
- EC50 ([2]; read-out: EC50 (agonist activity), CXL alone, THP-1 cells, Figure 2A): 20 µM
- Pathway dependence of effect on pIRF3 production [3]: affecting pIRF3 production only through the STING pathway
- Inhibition of IFN-b production ([4]; 1 fM, reviewer's reading of Figure 3D): about 75%
- Diminution of 2′,3′-cGAMP-induced expression of IFN-β ([4]; all CXL treatment groups 1 fM-1 nM, 1 h before 4 μM 2′,3′-cGAMP): more than 50%
- Antagonism of hSTING pathway in luciferase reporter assay ([5]; compound 1 h, then 4 μM 2′,3′-cGAMP): inverse dose response; also recorded: antagonism of the hSTING^WT pathway
- Concentration of maximum inhibition ([5]; reviewer's summary of IRF3 reporter assay): 100 aM
